Experimental data as given in ChEMBL document CHEMBL1141724, “Design and synthesis of 2-amino-pyrazolopyridines as Polo-like kinase 1 inhibitors” (Bioorg Med Chem Lett, 2008).
Activity calls are given as the source filed them. No cut-off for these calls is given here.

Legend:
[1] = molecular target: Serine/threonine-protein kinase PLK1 (Homo sapiens, UniProt P53350)
HCT-116 [2] = test: cells; settings: Homo sapiens
Description: Effect on cell cycle progression in human HCT116 cells assessed as mitotic arrest measured by doubling DNA content by High content screening

[3] = Selectivity for Plk1 over Plk2
[4] = Selectivity for Plk1 over Plk3
HCT-116 [5] = test: cells; settings: Homo sapiens; remark: listed apart in the source
Description: Effect on cell cycle progression in human HCT116 cells assessed as mitotic arrest measured by doubling DNA content by fluorescence microscopy

HeLa = test: Decrease in B23 nucleophosmin phosphorylation in human HeLa cells at 5 uM after 16 hrs by Western blot analysis; format: functional, cell-based
[6] = Selectivity for Plk1 over Aurora A
HCT-116 [7] = test: cells; settings: Homo sapiens; remark: listed apart in the source
Description: Effect on cell cycle progression in human HCT116 cells assessed as increase in phospho-histone H3 by fluorescence microscopy

Sequence of Serine/threonine-protein kinase PLK1 (P53350 whole entry): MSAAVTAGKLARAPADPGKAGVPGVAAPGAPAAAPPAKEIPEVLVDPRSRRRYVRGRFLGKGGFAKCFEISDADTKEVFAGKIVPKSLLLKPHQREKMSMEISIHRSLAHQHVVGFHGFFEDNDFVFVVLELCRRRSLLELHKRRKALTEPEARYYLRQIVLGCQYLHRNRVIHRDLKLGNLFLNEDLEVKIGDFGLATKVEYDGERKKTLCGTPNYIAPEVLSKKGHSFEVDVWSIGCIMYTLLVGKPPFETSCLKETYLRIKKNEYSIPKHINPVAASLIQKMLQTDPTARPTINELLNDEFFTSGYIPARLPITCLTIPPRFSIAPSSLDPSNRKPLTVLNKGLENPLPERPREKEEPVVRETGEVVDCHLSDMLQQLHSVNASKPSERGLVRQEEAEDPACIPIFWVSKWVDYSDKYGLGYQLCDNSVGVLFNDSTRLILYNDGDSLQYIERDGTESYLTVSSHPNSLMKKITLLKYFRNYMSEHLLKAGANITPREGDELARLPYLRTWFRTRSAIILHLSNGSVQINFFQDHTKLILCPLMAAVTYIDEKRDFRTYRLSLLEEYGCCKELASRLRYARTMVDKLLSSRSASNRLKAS

SMILES: COc1ccccc1-n1nc(C)c2cnc(N[C@@H](C)c3ccccc3)cc21
- IC50 [1]: 14500 nM

SMILES: Cc1nn(-c2cc(Cl)cc(CCC(N)=O)c2)c2cc(N[C@@H](C)c3ccccc3)ncc12
- IC50 [1]: 32 nM
- EC50 (HCT-116 [2]): 9350 nM

SMILES: Cc1nn(-c2ccccc2F)c2cc(N[C@@H](C)c3ccccc3)ncc12
- IC50 [1]: 4520 nM

SMILES: Cc1cc(C)cc(-n2nc(C)c3cnc(N[C@@H](C)c4ccccc4)cc32)c1
- IC50 [1]: 149 nM

SMILES: CC(=O)Nc1ccccc1-c1cc(Cl)cc(-n2nc(C)c3cnc(N[C@@H](C)c4ccccc4)cc32)c1
- IC50 [1]: 207 nM
- EC50 (HCT-116 [2]): > 20000 nM

SMILES: Cc1nn(-c2cc(Cl)cc(Br)c2)c2cc(N[C@@H](C)c3ccccc3)ncc12
- IC50 [1]: 274 nM

SMILES: Cc1nn(-c2cccc(C(C)C)c2)c2cc(N[C@@H](C)c3ccccc3)ncc12
- IC50 [1]: 1480 nM

SMILES: Cc1nn(-c2ccccc2C(N)=O)c2cc(N[C@@H](C)c3ccccc3)ncc12
- IC50 [1]: 42 nM
- EC50 (HCT-116 [2]): 3640 nM

SMILES: COc1cccc(-n2nc(C)c3cnc(N[C@@H](C)c4ccccc4)cc32)c1
- IC50 [1]: 5930 nM

SMILES: COc1ccc(-n2nc(C)c3cnc(N[C@@H](C)c4ccccc4)cc32)cc1
- IC50 [1]: 703 nM

SMILES: Cc1nn(-c2cccc(C#N)c2)c2cc(N[C@@H](C)c3ccccc3)ncc12
- IC50 [1]: 412 nM

SMILES: Cc1nn(-c2cccc(F)c2)c2cc(N[C@@H](C)c3ccccc3)ncc12
- IC50 [1]: 464 nM

SMILES: Cc1nn(-c2cc(Cl)cc(CCC(=O)NCCO)c2)c2cc(N[C@@H](C)c3ccccc3)ncc12
- IC50 [1]: 48 nM
- EC50 (HCT-116 [2]): 9200 nM

SMILES: Cc1nn(-c2cccc(Cl)c2)c2cc(N[C@@H](C)c3ccccc3)ncc12
- EC50 (HCT-116 [2]): > 20000 nM

SMILES: Cc1ccccc1-n1nc(C)c2cnc(N[C@@H](C)c3ccccc3)cc21
- IC50 [1]: 7690 nM

SMILES: Cc1cccc(-n2nc(C)c3cnc(N[C@@H](C)c4ccccc4)cc32)c1
- IC50 [1]: 474 nM

SMILES: Cc1nn(-c2cc(Cl)cc(CCC(=O)O)c2)c2cc(N[C@@H](C)c3ccccc3)ncc12
- IC50 [1]: 21 nM
- EC50 (HCT-116 [2]): > 20000 nM

SMILES: C[C@H](Nc1cc2c(cn1)cnn2-c1ccccc1C(N)=O)c1ccccc1
- Selectivity ratio [3]: 50
- Selectivity ratio [4]: 50
- EC50 (HCT-116 [5]): 1900 nM
- Activity (HeLa): Active
- IC50 [1]: 50 nM
- EC50 (HCT-116 [2]): 2430 nM
- Selectivity ratio [6]: 150
- EC50 (HCT-116 [7]): 1700 nM

SMILES: Cc1nn(-c2ccc(F)cc2)c2cc(N[C@@H](C)c3ccccc3)ncc12
- IC50 [1]: 3240 nM

SMILES: Cc1ccc(-n2nc(C)c3cnc(N[C@@H](C)c4ccccc4)cc32)cc1
- IC50 [1]: 4530 nM

SMILES: Cc1nn(-c2cccc(S(C)(=O)=O)c2)c2cc(N[C@@H](C)c3ccccc3)ncc12
- IC50 [1]: 225 nM

SMILES: Cc1nn(-c2cc(Cl)cc(Cl)c2)c2cc(N[C@@H](C)c3ccccc3)ncc12
- IC50 [1]: 641 nM

SMILES: Cc1nn(-c2cc(Cl)cc(CCCN)c2)c2cc(N[C@@H](C)c3ccccc3)ncc12
- IC50 [1]: 59 nM
- EC50 (HCT-116 [2]): 5800 nM

SMILES: CCOC(=O)C1=C(C)NC(=S)NC1c1cccc(O)c1 (centres undefined) [MONASTROL]
- EC50 (HCT-116 [5]): 1200 nM
- EC50 (HCT-116 [7]): 1500 nM

SMILES: Cc1nn(-c2cccc(N(C)C)c2)c2cc(N[C@@H](C)c3ccccc3)ncc12
- IC50 [1]: 977 nM
